Data on 1 molecule can be found in ChEMBL document CHEMBL1140941 (J Med Chem, 2009).

The Cmax is the highest concentration seen after dosing. Usually AUC(0-t) stands for exposure summed from dosing to a finite time, without extrapolation to infinity. As usually defined, the bioavailability is the share of a dose that reaches the circulation, judged against a reference dose that is usually intravenous.

SMILES strings stand for the structures. Activity calls are given as the source filed them. No cut-off for these calls is given here.

Series [1] has as its target T1, Glucocorticoid receptor (Homo sapiens) (UniProt P04150).
T1 sequence (whole entry): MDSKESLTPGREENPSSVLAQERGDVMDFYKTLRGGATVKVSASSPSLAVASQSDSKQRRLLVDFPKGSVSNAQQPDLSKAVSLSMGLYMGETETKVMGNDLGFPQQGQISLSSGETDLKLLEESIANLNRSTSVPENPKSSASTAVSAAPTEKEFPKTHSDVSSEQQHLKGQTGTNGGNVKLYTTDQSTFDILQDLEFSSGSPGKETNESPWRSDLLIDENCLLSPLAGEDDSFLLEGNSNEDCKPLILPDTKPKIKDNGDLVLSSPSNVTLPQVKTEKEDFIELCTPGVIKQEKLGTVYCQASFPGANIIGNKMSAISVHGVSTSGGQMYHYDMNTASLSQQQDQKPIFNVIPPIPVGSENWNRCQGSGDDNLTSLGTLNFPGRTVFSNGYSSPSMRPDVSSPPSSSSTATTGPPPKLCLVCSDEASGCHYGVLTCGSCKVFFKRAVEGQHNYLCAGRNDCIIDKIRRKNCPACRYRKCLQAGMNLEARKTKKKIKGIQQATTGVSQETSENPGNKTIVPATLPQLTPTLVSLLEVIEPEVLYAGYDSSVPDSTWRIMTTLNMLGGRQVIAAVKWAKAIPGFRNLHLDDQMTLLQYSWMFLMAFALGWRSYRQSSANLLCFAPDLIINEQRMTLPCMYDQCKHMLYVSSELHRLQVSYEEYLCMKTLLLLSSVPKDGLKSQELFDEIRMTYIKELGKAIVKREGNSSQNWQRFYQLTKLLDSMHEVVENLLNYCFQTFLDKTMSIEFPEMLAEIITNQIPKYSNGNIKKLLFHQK
The series is described as follows: Agonist activity at gal-GR expressed in african green monkey CV1 cells co-expressing MH100 up to 10 uM by luciferase reporter gene assay relative to control. Type of series: functional, cell-based. Conditions: CV-1. In general terms: Reporter assays use an easily measured gene product as a stand-in for the process of interest.

Series [2] concerns the target T2, Progesterone receptor (Homo sapiens) (UniProt P06401).
T2 sequence (whole entry): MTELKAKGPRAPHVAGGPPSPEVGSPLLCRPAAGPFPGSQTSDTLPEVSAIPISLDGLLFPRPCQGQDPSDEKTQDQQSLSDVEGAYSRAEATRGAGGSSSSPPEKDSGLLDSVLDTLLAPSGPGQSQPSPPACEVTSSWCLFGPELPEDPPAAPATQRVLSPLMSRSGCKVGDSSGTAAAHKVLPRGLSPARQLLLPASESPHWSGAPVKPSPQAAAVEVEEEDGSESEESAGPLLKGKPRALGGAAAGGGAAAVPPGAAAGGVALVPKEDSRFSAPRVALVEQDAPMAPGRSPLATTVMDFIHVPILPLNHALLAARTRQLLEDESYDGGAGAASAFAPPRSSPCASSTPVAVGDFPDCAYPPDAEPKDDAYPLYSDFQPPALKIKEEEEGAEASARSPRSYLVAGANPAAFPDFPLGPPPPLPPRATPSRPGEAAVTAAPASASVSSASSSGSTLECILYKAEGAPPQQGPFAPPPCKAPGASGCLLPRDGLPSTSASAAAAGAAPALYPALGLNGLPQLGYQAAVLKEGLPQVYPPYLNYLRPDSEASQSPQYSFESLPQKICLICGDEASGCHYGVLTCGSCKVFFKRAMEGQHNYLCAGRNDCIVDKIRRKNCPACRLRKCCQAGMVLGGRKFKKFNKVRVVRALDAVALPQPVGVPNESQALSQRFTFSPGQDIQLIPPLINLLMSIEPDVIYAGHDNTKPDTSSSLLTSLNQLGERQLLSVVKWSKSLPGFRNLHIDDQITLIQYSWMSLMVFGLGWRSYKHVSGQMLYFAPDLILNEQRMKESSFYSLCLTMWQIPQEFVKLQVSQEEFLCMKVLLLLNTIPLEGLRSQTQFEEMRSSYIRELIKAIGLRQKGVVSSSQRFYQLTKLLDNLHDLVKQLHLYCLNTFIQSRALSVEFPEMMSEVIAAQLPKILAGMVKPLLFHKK
The series is described as follows: Agonist activity at gal-PR expressed in african green monkey CV1 cells co-expressing MH100 up to 10 uM by luciferase reporter gene assay relative to control. In kind it is functional, cell-based. Conditions: CV-1.

Series [3] addresses T3, Peroxisome proliferator-activated receptor gamma (Homo sapiens) (UniProt P37231).
T3 sequence (whole entry): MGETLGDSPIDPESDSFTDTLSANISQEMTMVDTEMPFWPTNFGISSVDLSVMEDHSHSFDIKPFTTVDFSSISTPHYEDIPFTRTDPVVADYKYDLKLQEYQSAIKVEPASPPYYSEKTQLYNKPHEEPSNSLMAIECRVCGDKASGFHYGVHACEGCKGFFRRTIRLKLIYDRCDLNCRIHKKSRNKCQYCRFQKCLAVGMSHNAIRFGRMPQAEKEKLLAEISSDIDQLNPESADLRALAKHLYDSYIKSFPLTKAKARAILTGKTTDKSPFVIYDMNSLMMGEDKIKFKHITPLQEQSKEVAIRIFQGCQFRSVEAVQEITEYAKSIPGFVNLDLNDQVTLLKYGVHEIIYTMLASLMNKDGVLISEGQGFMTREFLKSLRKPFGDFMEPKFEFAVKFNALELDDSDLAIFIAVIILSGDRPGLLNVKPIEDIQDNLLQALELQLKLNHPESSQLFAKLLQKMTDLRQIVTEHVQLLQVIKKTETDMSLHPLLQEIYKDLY
Kind of series: Antagonist activity at PPARgamma expressed in african green monkey CV1 cells co-expressing PPRE by luciferase reporter gene assay. Type of series: functional, cell-based. Conditions: CV-1.

In series [4] the target is Steroid hormone receptor ERR2 (Homo sapiens) (UniProt O95718). The series is described as follows: Antagonist activity at ERRbeta expressed in african green monkey CV1 cells by luciferase reporter gene assay. Type of series: functional, cell-based. Conditions: CV-1.
Series [5] is described as follows: Cmax in CD rat at 3 mg/kg, iv. More on the design: dose 3 mg/kg, route intravenous. Type of series: ADME, organism-based. Conditions: in vivo.
Series [6] in a line: AUC (0 to t) in CD rat at 3 mg/kg, po. In kind it is ADME, organism-based. On the set-up: dose 3 mg/kg, route oral. The conditions noted are these: plasma.
The test system of a further series is Rattus norvegicus. Kind of series: Clearance in CD rat assessed as liver blood flow at 3 mg/kg. Type of series: ADME, organism-based. More on the design: dose 3 mg/kg. The conditions noted are these: in vivo.
The nature of series [7]: Oral bioavailability in CD rat at 3 mg/kg. Conditions: in vivo. Type of series: ADME, organism-based.

Chain of Steroid hormone receptor ERR2 (Homo sapiens) (O95718 whole entry): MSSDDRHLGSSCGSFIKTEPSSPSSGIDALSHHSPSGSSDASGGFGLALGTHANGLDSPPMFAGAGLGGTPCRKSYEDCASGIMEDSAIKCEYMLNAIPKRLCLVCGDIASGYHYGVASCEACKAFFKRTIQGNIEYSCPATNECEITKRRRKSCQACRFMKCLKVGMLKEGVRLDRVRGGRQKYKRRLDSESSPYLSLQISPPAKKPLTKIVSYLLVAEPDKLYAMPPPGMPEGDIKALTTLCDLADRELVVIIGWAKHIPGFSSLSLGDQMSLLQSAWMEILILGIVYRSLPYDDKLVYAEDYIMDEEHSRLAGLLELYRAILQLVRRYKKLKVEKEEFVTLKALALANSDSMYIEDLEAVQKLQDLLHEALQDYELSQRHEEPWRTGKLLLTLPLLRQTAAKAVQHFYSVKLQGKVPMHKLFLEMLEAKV

As to `CC(C)OC(=O)C1=CN(C(=O)c2ccc(F)c(F)c2)CC(C)(C)c2c1[nH]c1ccccc21` [TUROFEXORATE ISOPROPYL], the outcome in series [1], in series [2], in series [3] and in series [4] was inactive. The concentration in series [5] peaked (Cmax) at 30.5 µM. Further, the exposure AUC(0-t) in series [6] worked out at 7 µM·h. Besides, the LBF with Rattus norvegicus is 10%. The bioavailability in series [7] worked out at 37.6%.
